Values joined by “and” are separate entries in the source; they are usually repeats but may differ in a detail not shown here. Equal values may be shown once.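 Each compound was tested at five concentrations against cells in 96-well plates for 48 hours. GI50 = concentration required for 50% inhibition of growth. TGI denotes the concentration required for complete inhibition of growth.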
Legend:
Test in all cases: growth of human tumour cells (NCI), 48 h
786-0 renal = system: 786-0 renal
A498 renal = system: A498 renal
A549 NSCLC = system: A549 NSCLC
ACHN renal = system: ACHN renal
BT-549 breast = system: BT-549 breast
CAKI-1 renal = system: CAKI-1 renal
COLO 205 colon = system: COLO 205 colon
DU-145 prostate = system: DU-145 prostate
EKVX NSCLC = system: EKVX NSCLC
HCC-2998 colon = system: HCC-2998 colon
HCT-116 colon = system: HCT-116 colon
HCT-15 colon = system: HCT-15 colon
HL-60(TB) leukemia = system: HL-60(TB) leukemia
HOP-62 NSCLC = system: HOP-62 NSCLC
HOP-92 NSCLC = system: HOP-92 NSCLC
HS 578T breast = system: HS 578T breast
HT29 colon = system: HT29 colon
IGROV1 ovarian = system: IGROV1 ovarian
K-562 leukemia = system: K-562 leukemia
KM12 colon = system: KM12 colon
LOX IMVI melanoma = system: LOX IMVI melanoma
M14 melanoma = system: M14 melanoma
MALME-3M melanoma = system: MALME-3M melanoma
MCF7 breast = system: MCF7 breast
MDA-MB-231 breast = system: MDA-MB-231 breast
MDA-MB-435 = system: MDA-MB-435
MOLT-4 leukemia = system: MOLT-4 leukemia
NCI-H226 lung = system: NCI-H226 lung
NCI-H23 lung = system: NCI-H23 lung
NCI-H460 lung = system: NCI-H460 lung
NCI-H522 lung = system: NCI-H522 lung
NCI/ADR-RES ovarian = system: NCI/ADR-RES ovarian
OVCAR-3 ovarian = system: OVCAR-3 ovarian
OVCAR-4 ovarian = system: OVCAR-4 ovarian
OVCAR-5 ovarian = system: OVCAR-5 ovarian
OVCAR-8 ovarian = system: OVCAR-8 ovarian
PC-3 prostate = system: PC-3 prostate
RPMI-8226 leukemia = system: RPMI-8226 leukemia
RXF 393 renal = system: RXF 393 renal
SF-268 CNS = system: SF-268 CNS
SF-295 CNS = system: SF-295 CNS
SF-539 CNS = system: SF-539 CNS
SK-MEL-2 melanoma = system: SK-MEL-2 melanoma
SK-MEL-28 melanoma = system: SK-MEL-28 melanoma
SK-MEL-5 melanoma = system: SK-MEL-5 melanoma
SK-OV-3 ovarian = system: SK-OV-3 ovarian
SN12C renal = system: SN12C renal
SNB-19 CNS = system: SNB-19 CNS
SNB-75 CNS = system: SNB-75 CNS
SW-620 colon = system: SW-620 colon
T-47D breast = system: T-47D breast
TK-10 renal = system: TK-10 renal
U251 CNS = system: U251 CNS
UACC-257 melanoma = system: UACC-257 melanoma
UACC-62 melanoma = system: UACC-62 melanoma
UO-31 renal = system: UO-31 renal

In the case of `CC[n+]1c(/C=C/c2ccc(N3CCCC3)cc2)cccc1/C=C/c1ccc(N2CCCC2)cc1`, the GI50 (786-0 renal) is reported as 247 nM, the TGI (786-0 renal) is reported as 1200 nM and the GI50 (A498 renal) is reported as 344 nM and 239 nM. For the same molecule, the TGI (A498 renal) was 1150 nM and 828 nM, the GI50 (A549 NSCLC) was 296 nM and 260 nM and the TGI (A549 NSCLC) was 1650 nM and 919 nM. For the same molecule, the GI50 (ACHN renal) was 180 nM and 240 nM, the TGI (ACHN renal) was 915 nM and 1140 nM and the GI50 (BT-549 breast) was 103 nM. For the same molecule, the TGI (BT-549 breast) was 1760 nM, the GI50 (CAKI-1 renal) was 145 nM and the TGI (CAKI-1 renal) was 1360 nM. For the same molecule, the GI50 (COLO 205 colon) was 164 nM, the TGI (COLO 205 colon) was 341 nM and the GI50 (DU-145 prostate) was 312 nM and 240 nM. For the same molecule, the TGI (DU-145 prostate) was 1190 nM and 1220 nM, the GI50 (EKVX NSCLC) was 83.2 nM and the TGI (EKVX NSCLC) was 2080 nM. For the same molecule, the GI50 (HCC-2998 colon) was 181 nM, the TGI (HCC-2998 colon) was 338 nM and the GI50 (HCT-116 colon) was 83.8 nM. It also gave a TGI (HCT-116 colon) of 1280 nM, a GI50 (HCT-15 colon) of 332 nM and a TGI (HCT-15 colon) of 1230 nM. The GI50 (HL-60(TB) leukemia) was 49 nM and 391 nM, the GI50 (HOP-62 NSCLC) was 414 nM and the TGI (HOP-62 NSCLC) was 1460 nM. The GI50 (HOP-92 NSCLC) was 342 nM, the TGI (HOP-92 NSCLC) was 1410 nM and the GI50 (HS 578T breast) was 273 nM. For the same molecule, the TGI (HS 578T breast) was 1460 nM, the GI50 (HT29 colon) was 115 nM and the TGI (HT29 colon) was 375 nM. The GI50 (IGROV1 ovarian) was 532 nM, the TGI (IGROV1 ovarian) was 2400 nM and the TGI (K-562 leukemia) was over 100000 nM. For the same molecule, the GI50 (KM12 colon) was 116 nM, the TGI (KM12 colon) was 238 nM and the GI50 (LOX IMVI melanoma) was 220 nM and 145 nM. For the same molecule, the TGI (LOX IMVI melanoma) was 1620 nM and 1450 nM, the GI50 (M14 melanoma) was 345 nM and the TGI (M14 melanoma) was 1850 nM. The GI50 (MALME-3M melanoma) was 293 nM, the TGI (MALME-3M melanoma) was 2130 nM and the GI50 (MCF7 breast) was 213 nM. The TGI (MCF7 breast) was 1350 nM, the GI50 (MDA-MB-231 breast) was 264 nM and 268 nM and the TGI (MDA-MB-231 breast) was 1290 nM and 1110 nM. The GI50 (MDA-MB-435) was 343 nM, the TGI (MDA-MB-435) was 2340 nM and the GI50 (MOLT-4 leukemia) was 128 nM and 354 nM. The GI50 (NCI-H226 lung) was 146 nM, the TGI (NCI-H226 lung) was 1490 nM and the GI50 (NCI-H23 lung) was 74.3 nM and 87.6 nM. The TGI (NCI-H23 lung) was 982 nM and 1410 nM, the GI50 (NCI-H460 lung) was 293 nM and the TGI (NCI-H460 lung) was 1150 nM. The GI50 (NCI-H522 lung) was 239 nM, the TGI (NCI-H522 lung) was 2080 nM and the GI50 (NCI/ADR-RES ovarian) was 466 nM. The TGI (NCI/ADR-RES ovarian) was 1950 nM, the GI50 (OVCAR-3 ovarian) was 255 nM and the TGI (OVCAR-3 ovarian) was 811 nM. For the same molecule, the GI50 (OVCAR-4 ovarian) was 38.6 nM, the TGI (OVCAR-4 ovarian) was 1290 nM and the GI50 (OVCAR-5 ovarian) was 476 nM. For the same molecule, the TGI (OVCAR-5 ovarian) was 1480 nM, the GI50 (OVCAR-8 ovarian) was 248 nM and 124 nM and the TGI (OVCAR-8 ovarian) was 1610 nM and 953 nM. The GI50 (PC-3 prostate) was 194 nM, the TGI (PC-3 prostate) was 1230 nM and the GI50 (RPMI-8226 leukemia) was 7.2 nM and 14.9 nM. For the same molecule, the TGI (RPMI-8226 leukemia) was 131 nM and 261 nM, the GI50 (RXF 393 renal) was 207 nM and the TGI (RXF 393 renal) was 1510 nM. For the same molecule, the GI50 (SF-268 CNS) was 449 nM, the TGI (SF-268 CNS) was 1580 nM and the GI50 (SF-295 CNS) was 263 nM. For the same molecule, the TGI (SF-295 CNS) was 1900 nM, the GI50 (SF-539 CNS) was 274 nM and the TGI (SF-539 CNS) was 1440 nM. The GI50 (SK-MEL-2 melanoma) was 560 nM, the TGI (SK-MEL-2 melanoma) was 2380 nM and the GI50 (SK-MEL-28 melanoma) was 194 nM and 169 nM. For the same molecule, the TGI (SK-MEL-28 melanoma) was 374 nM and 321 nM, the GI50 (SK-MEL-5 melanoma) was 116 nM and the TGI (SK-MEL-5 melanoma) was 274 nM. For the same molecule, the GI50 (SK-OV-3 ovarian) was 228 nM, the TGI (SK-OV-3 ovarian) was 897 nM and the GI50 (SN12C renal) was 217 nM and 271 nM. For the same molecule, the TGI (SN12C renal) was 1140 nM and 1060 nM, the GI50 (SNB-19 CNS) was 310 nM and the TGI (SNB-19 CNS) was 1550 nM. For the same molecule, the GI50 (SNB-75 CNS) was 160 nM, the TGI (SNB-75 CNS) was 880 nM and the GI50 (SW-620 colon) was 287 nM and 233 nM. The TGI (SW-620 colon) was 1110 nM and 1030 nM, the GI50 (T-47D breast) was 33.2 nM and the TGI (T-47D breast) was 931 nM. The GI50 (TK-10 renal) was 359 nM, the TGI (TK-10 renal) was 2380 nM and the GI50 (U251 CNS) was 202 nM. It also gave a TGI (U251 CNS) of 1040 nM, a GI50 (UACC-257 melanoma) of 190 nM and a TGI (UACC-257 melanoma) of 773 nM. The GI50 (UACC-62 melanoma) was 356 nM and 387 nM, the TGI (UACC-62 melanoma) was 1700 nM and 1670 nM and the GI50 (UO-31 renal) was 376 nM. The TGI (UO-31 renal) was 1600 nM.

Source: PubChem BioAssay (NCI)
